The values that follow come from PubChem BioAssay AID489027 (Sanford-Burnham Center for Chemical Genomics, 2010).

Active and inactive are the calls of the source. The rule behind the calls is not given here.

This test deals with UPR counterscreen luciferase reporter, luminescence. Kind of test: activators in UPR counterscreen luciferase reporter, dose response, counter-screen for adaptive UPR activator project, cell-based, luminescence (AID 489027). Background: Counterscreens check selectivity or assay interference.

Usually EC50 stands for the concentration giving half of the maximal effect. For `CN(C)CCCN(C(=O)c1ccc(S(=O)(=O)N2CCCCCC2)cc1)c1nc2ccc(Br)cc2s1`, the EC50 was 12.7 µM.
As for `CC(NCC(O)COCCC12CC3CC(CC(C3)C1)C2)c1ccccc1` (centres undefined), the figure is > 80 µM (inactive).
To `Cc1ccc(NS(=O)(=O)c2cc([N+](=O)[O-])ccc2N/N=C/c2sc(N3CCOCC3)nc2-c2ccccc2)c(C)c1` belongs > 80 µM (inactive); to `c1ccc(Oc2c3ccccc3nc3ccccc23)cc1`, “inactive”; to `COc1ccccc1Nc1nnc(SCC(=O)NC(=O)Nc2ccc3c(c2)OCCO3)s1`, > 80 µM (inactive).
As for `NC(=O)CC(NC(=O)Cc1cccc2ccccc12)c1ccc(NCCOc2ccccc2)c([N+](=O)[O-])c1` (centres undefined), the figure is > 80 µM (inactive).
For `CCOC(=O)c1nnc(-c2ccccc2)nc1Oc1ccc(Cl)cc1`, the EC50 was 19.6 µM.
With `C#CCn1c(=NC(=O)c2ccc(Br)s2)sc2cccc(OC)c21`, the EC50 is > 80 µM (inactive).
As for `Cc1cc(NC(=O)c2cc(-c3ccncc3)nc3ccccc23)ccc1Br`, the figure is > 80 µM (inactive); as for `COc1cccc(-n2c(SCC(=O)N3CCc4ccccc43)nnc2-c2c[nH]c3ccccc23)c1`, > 80 µM (inactive); as for `CC1CCc2cc(F)ccc2N1C(=O)CSc1nnc2c(n1)[nH]c1ccc(F)cc12` (centres undefined), > 80 µM (inactive).
As for `CCOc1cc(CNC(C)(C)CO)cc(Br)c1OCc1ccc(Cl)cc1Cl`, the figure is > 80 µM (inactive); as for `CCOc1ccc2nc(NC3=NC(c4ccc(OC)cc4)CC(=O)N3)nc(C)c2c1` (centres undefined), 11.8 µM.
To `Oc1ccc(/C=N/Nc2nc(N3CCCC3)nc(N3CCCC3)n2)cc1O` belongs 3.95 µM; to `COc1cc2c(cc1NC(=S)NC(=O)/C=C/c1ccco1)oc1ccccc12`, “inactive”; to `CCOC(=O)c1nnc(-c2ccc(C)cc2)nc1Oc1ccc(Cl)cc1Cl`, 13.1 µM.
With `Cc1ccc(Cl)cc1N1CCN(Cc2nc3c(c(=O)[nH]c(=O)n3C)n2CCc2ccccc2)CC1`, the EC50 was 16.7 µM.
Regarding `Cc1cc(C)c(NC(=O)CSc2nc(COc3ccccc3)nc3ccccc23)c(C)c1`, the EC50 entry was “inactive”.
As for `Cc1ccc(Cc2cnc(NC(=O)/C(C#N)=C/c3ccc(-c4cccc([N+](=O)[O-])c4)o3)s2)cc1`, the figure is 12 µM.
As for `CCOC(=O)c1nnc(-c2ccc(C)cc2)nc1Oc1ccccc1Cl`, the entry is “inactive”; as for `COc1ccc(-c2c(-c3cc(OC)cc(OC)c3)n(C)c3ccc(-c4cnc(N)nc4)cc23)cc1`, > 80 µM (inactive).
To `C/C(=N/Nc1cc(-c2ccccc2)nc(-c2ccccc2)n1)c1ccc(O)cc1` belongs 15.4 µM; to `CCN(CC)c1ccc(/C=C/[N+](=O)[O-])cc1`, 11.3 µM.
In the case of `Cn1c(Cl)cnc1C1CC(=O)c2cc(Cl)ccc2O1` (centres undefined), the half-maximal effective concentration (EC50) was 12 µM.
To `Cc1cc(NC(=O)CSc2nc3cc(Cl)ccc3c(=O)n2Cc2ccco2)no1` belongs > 80 µM (inactive); to `CCOc1ccc(NC(=O)C(Cc2ccccc2)N2C(=O)c3cccc4cccc(c34)C2=O)cc1` (centres undefined), > 80 µM (inactive).
For `CN(C)c1ccc(/C=C/[N+](=O)[O-])cc1`, the EC50 was 12.6 µM.
As for `Cc1nc(NC(=O)CSc2ccc(-c3nc4ccccc4[nH]3)cn2)sc1C`, the EC50 result is “inactive”.
As for `CCCCNc1c(-c2ccc(SC(C)CC)cc2)nc2cnccn12` (centres undefined), the figure is 14.1 µM; as for `O=C(Nc1ccc2oc(-c3ccccc3Cl)nc2c1)c1cncc(Br)c1`, > 80 µM (inactive); as for `CCOc1cc(/C=N\Nc2ccc([N+](=O)[O-])cc2)ccc1OCC(=O)Nc1ccc(C)c(C)c1`, > 80 µM (inactive).
Consider `Cc1cccc2sc(NC(=O)c3cc(S(=O)(=O)N(C)C)ccc3N3CCCC3)nc12`, for which the EC50 is 7.43 µM.
For the compound `Cc1cc(C)nc(SCc2ccc(C(=O)N/N=C/c3cccc(O)c3O)cc2)n1`, the EC50 is 6.43 µM.
`CCCCN(CC)S(=O)(=O)c1ccc(C(=O)N=c2sc3cc(NC(C)=O)ccc3n2C)cc1`: the EC50 was 5.23 µM.
